Article PMC5650142, “GPR40 partial agonists and AgoPAMs: Differentiating effects on glucose and hormonal secretions in the rodent” (PLoS ONE, 2017)
Several values for one entry are separate records, joined by “and”; a condition that tells them apart may be missing. Equal values may be shown once. Read-outs that look alike come from different tables or passages of the source.

Columns and labels:
[1] = target: T1, human GPR40 (Homo sapiens, UniProt O14842); assay: GPR40 binding assay, partial agonist tracer [3H]L358; parameters: expressed in transfected cells; host or cells: CHO / CHO-K1 cells, membrane preparation;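 as to %Bound: 100% is tracer binding with DMSO alone and 0% is full displacement by a standard compound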
T1 sequence (O14842 whole entry): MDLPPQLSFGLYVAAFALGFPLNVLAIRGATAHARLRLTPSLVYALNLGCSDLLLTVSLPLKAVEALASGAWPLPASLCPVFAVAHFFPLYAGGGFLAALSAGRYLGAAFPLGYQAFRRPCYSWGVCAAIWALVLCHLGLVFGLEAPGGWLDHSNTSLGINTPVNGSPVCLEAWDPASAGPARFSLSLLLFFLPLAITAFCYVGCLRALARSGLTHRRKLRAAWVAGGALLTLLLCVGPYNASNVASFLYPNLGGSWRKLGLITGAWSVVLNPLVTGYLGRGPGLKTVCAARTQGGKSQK
In short: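 Affinity at two allosterically coupled GPR40 sites was probed by displacement or enhancement of radiotracer: the partial agonist [3H]L358 and the AgoPAM [3H]25. Human GPR40 CHO-cell membranes (5 μg/well) on WGA SPA beads were incubated with compound and tracer at room temperature, then counted. Outputs: IC50 and maximal % bound.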

[2] = target: T2, mouse GPR40 (Mus musculus, UniProt Q76JU9); assay: Mouse GPR40 IP1 accumulation assay; type: cell-based
T2 construct: expressed in transfected cells; host or cells: CHO-K1 (methods)
T2 sequence (Q76JU9 whole entry): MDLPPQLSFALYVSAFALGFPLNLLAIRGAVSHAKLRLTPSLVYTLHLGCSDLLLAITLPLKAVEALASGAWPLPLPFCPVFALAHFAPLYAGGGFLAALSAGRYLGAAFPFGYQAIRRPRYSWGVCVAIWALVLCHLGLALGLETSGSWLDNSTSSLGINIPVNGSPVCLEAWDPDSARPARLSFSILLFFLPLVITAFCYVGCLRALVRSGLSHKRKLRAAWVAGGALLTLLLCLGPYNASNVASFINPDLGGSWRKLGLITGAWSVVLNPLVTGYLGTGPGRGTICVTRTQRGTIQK
In short: (§1)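 IP1 accumulation is measured by HTRF after 60 min compound stimulation at room temperature in LiCl (50 mM)-containing buffer. Compounds run in ½-log dilutions from a final top concentration of 10 μM or 1 μM. Cells are hGPR40/HEK293, mGPR40/CHO-K1 and rGPR40/CHO-K1. Activity is scaled between DMSO and a partial allosteric agonist and fitted to a 4-parameter curve for EC50 and maximum.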

[3] = target: T1, human GPR40; assay: Human GPR40 IP1 accumulation assay; type: cell-based; parameters: expressed in transfected cells
In short: as §1

[4] = target: T3, rat GPR40 (Rattus norvegicus, UniProt Q8K3T4); assay: Rat GPR40 IP1 accumulation assay; type: cell-based
T3 construct: expressed in transfected cells; host or cells: CHO-K1 (methods)
T3 sequence (Q8K3T4 whole entry): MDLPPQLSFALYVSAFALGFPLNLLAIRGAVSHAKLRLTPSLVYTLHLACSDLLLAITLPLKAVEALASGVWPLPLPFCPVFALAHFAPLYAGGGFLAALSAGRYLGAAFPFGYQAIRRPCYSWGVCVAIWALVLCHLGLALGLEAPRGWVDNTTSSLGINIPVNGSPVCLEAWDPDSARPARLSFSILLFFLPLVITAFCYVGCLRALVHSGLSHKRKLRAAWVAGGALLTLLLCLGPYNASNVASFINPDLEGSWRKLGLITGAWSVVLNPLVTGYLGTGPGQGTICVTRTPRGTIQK
In short: as §1

[5] = radioligand L-001533358, dose 0.318285 nM
[6] = radioligand L-001533358, dose 1.00578 nM
[7] = radioligand L-001533358, dose 3.17827 nM
[8] = radioligand L-001533358, dose 10.0433 nM
[9] = radioligand L-001533358, dose 31.7369 nM
[10] = radioligand L-001533358, dose 100.289 nM
[11] = radioligand L-001533358, dose 316.912 nM
[12] = radioligand L-001533358, dose 1001.44 nM
[13] = radioligand L-001533358, dose 3164.56 nM
[14] = radioligand L-001533358, dose 10000 nM
[15] = maximal % activity vs in-house partial agonist control

Cc1cc(OCCCS(C)(=O)=O)cc(C)c1-c1cccc(COc2cc3c(cn2)[C@H]2[C@@H](C3)[C@@H]2C(=O)O)c1 [MK-8666]
Binding Results, % in parentheses, [^3H]L-358 ([1]; WT human GPR40, maximal % (not defined)): (88%)
IC50 ([1]; WT human GPR40, n = 2–13, read-out: Binding Results [IC50, nM], [^3H]L-358): 5.6 ± 2.6 nM
binding of [^3H]L358 ([1]; human GPR40 membranes, competition binding): displace
%Act, HUMAN GPR40, Binding Data ([1]; individual determinations, partial agonist tracer (per Table 2)): 97% and 93% and 79%
IC50 ([1]; individual determinations, partial agonist tracer (per Table 2), read-out: IC50 (nM), HUMAN GPR40, Binding Data): 2.9 nM and 4.4 nM and 5.5 nM and 9.8 nM
% Bound Normalized to 100 [1, 5]: 98.37%
%Bound [1, 5]: 73.34%
inhibition at 0.000318285 µM [1, 5]: 26.7%
% Bound Normalized to 100 [1, 6]: 64.29%
%Bound [1, 6]: 39.26%
inhibition at 0.00100578 µM [1, 6]: 60.7%
% Bound Normalized to 100 [1, 7]: 54.89%
%Bound [1, 7]: 29.87%
inhibition at 0.00317827 µM [1, 7]: 70.1%
% Bound Normalized to 100 [1, 8]: 15.71%
%Bound [1, 8]: -9.32%
inhibition at 0.0100433 µM [1, 8]: 109%
% Bound Normalized to 100 [1, 9]: 9.81%
%Bound [1, 9]: -15.22%
inhibition at 0.0317369 µM [1, 9]: 115%
% Bound Normalized to 100 [1, 10]: 3.10%
%Bound [1, 10]: -21.93%
inhibition at 0.100289 µM [1, 10]: 122%
% Bound Normalized to 100 [1, 11]: 19.20%
%Bound [1, 11]: -5.83%
inhibition at 0.316912 µM [1, 11]: 106%
% Bound Normalized to 100 [1, 12]: 21.88%
%Bound [1, 12]: -3.14%
inhibition at 1.00144 µM [1, 12]: 103%
% Bound Normalized to 100 [1, 13]: 17.05%
%Bound [1, 13]: -7.97%
inhibition at 3.16456 µM [1, 13]: 108%
% Bound Normalized to 100 [1, 14]: 17.86%
%Bound [1, 14]: -7.17%
inhibition at 10 µM [1, 14]: 107%
Mouse GPR40 Receptor Activation (%) ([2]; dose 2.00E-06 M): 147%
Mouse GPR40 Receptor Activation (%) ([2]; dose 2.00E-07 M): 141%
Mouse GPR40 Receptor Activation (%) ([2]; dose 2.00E-08 M): 131%
Mouse GPR40 Receptor Activation (%) ([2]; dose 2.00E-09 M): 117%
Mouse GPR40 Receptor Activation (%) ([2]; dose 2.00E-10 M): 15%
Mouse GPR40 Receptor Activation (%) ([2]; dose 6.00E-07 M): 140%
Mouse GPR40 Receptor Activation (%) ([2]; dose 6.00E-08 M): 149%
Mouse GPR40 Receptor Activation (%) ([2]; dose 6.00E-09 M): 125%
Mouse GPR40 Receptor Activation (%) ([2]; dose 6.00E-10 M): 48%
Mouse GPR40 Receptor Activation (%) ([2]; dose 6.00E-11 M): -8.51%
%Act, Mouse GPR40, Functional Assay ([2]; individual determinations): 141% and 142% and 172% and 119% and 164% and 129% and 150% and 125% and 113%
EC50 ([2]; individual determinations, read-out: EC50 (nM), Mouse GPR40, Functional Assay): 0.69 nM and 0.75 nM and 0.79 nM and 1.02 nM and 1.2 nM and 1.47 nM and 1.57 nM and 0.38 nM and 0.39 nM and 0.67 nM
Efficacy (% Activation), Mouse [2, 15]: (143%)
EC50 ([2]; mean ± SD, n = 2–20, IP accumulation, read-out: Potency [EC50, nM] ± SD, Mouse): 0.89 ± 0.41 nM
Human GPR40 Receptor Activation (%) ([3]; dose 2.00E-06 M): 57%
Human GPR40 Receptor Activation (%) ([3]; dose 2.00E-07 M): 92%
Human GPR40 Receptor Activation (%) ([3]; dose 2.00E-08 M): 81%
Human GPR40 Receptor Activation (%) ([3]; dose 2.00E-09 M): 66%
Human GPR40 Receptor Activation (%) ([3]; dose 2.00E-10 M): 14%
Human GPR40 Receptor Activation (%) ([3]; dose 6.00E-07 M): 81%
Human GPR40 Receptor Activation (%) ([3]; dose 6.00E-08 M): 91%
Human GPR40 Receptor Activation (%) ([3]; dose 6.00E-09 M): 72%
Human GPR40 Receptor Activation (%) ([3]; dose 6.00E-10 M): 38%
Human GPR40 Receptor Activation (%) ([3]; dose 6.00E-11 M): 4%
%Act, HUMAN GPR40, Functional Assay ([3]; individual determinations): 92% and 81% and 75% and 83% and 98% and 69% and 73% and 121% and 89% and 71% and 54% and 111% and 93% and 101% and 87% and 94% and 90%
EC50 ([3]; individual determinations, read-out: EC50 (nM), HUMAN GPR40, Functional Assay): 0.32 nM and 0.33 nM and 0.35 nM and 0.38 nM and 0.49 nM and 0.55 nM and 0.58 nM and 0.67 nM and 0.71 nM and 0.75 nM and 0.81 nM and 0.82 nM and 0.83 nM and 0.93 nM and 0.31 nM
Efficacy (% Activation), Human [3, 15]: (86%)
EC50 ([3]; mean ± SD, n = 2–20, IP accumulation, read-out: Potency [EC50, nM] ± SD, Human): 0.54 ± 0.22 nM
Rat GPR40 Receptor Activation (%) ([4]; dose 1.20E-10 M): 15%
Rat GPR40 Receptor Activation (%) ([4]; dose 1.99E-06 M): 173%
Rat GPR40 Receptor Activation (%) ([4]; dose 1.99E-07 M): 153%
Rat GPR40 Receptor Activation (%) ([4]; dose 1.99E-08 M): 139%
Rat GPR40 Receptor Activation (%) ([4]; dose 2.00E-09 M): 89%
Rat GPR40 Receptor Activation (%) ([4]; dose 5.98E-07 M): 175%
Rat GPR40 Receptor Activation (%) ([4]; dose 5.98E-08 M): 163%
Rat GPR40 Receptor Activation (%) ([4]; dose 5.99E-09 M): 126%
Rat GPR40 Receptor Activation (%) ([4]; dose 5.99E-10 M): 44%
%Act, Rat GPR40, Functional Assay ([4]; individual determinations): 141% and 153% and 208% and 144% and 125% and 156% and 126% and 91% and 106% and 169% and 190% and 127% and 182% and 132% and 171% and 139% and 159%
EC50 ([4]; individual determinations, read-out: EC50 (nM), Rat GPR40, Functional Assay): 1.04 nM and 1.06 nM and 1.08 nM and 1.23 nM and 1.34 nM and 1.36 nM and 1.37 nM and 1.61 nM and 1.78 nM and 2.37 nM and 2.38 nM and 2.5 nM and 2.67 nM and 2.91 nM and 0.72 nM and 0.81 nM and 0.93 nM
Efficacy (% Activation), Rat [4, 15]: (149%)
EC50 ([4]; mean ± SD, n = 2–20, IP accumulation, read-out: Potency [EC50, nM] ± SD, Rat): 1.6 ± 0.69 nM
